US11905230B2, “Phenoxyacetic acid derivatives, preparation method thereof and use thereof as medicament” (CHINA PHARMACEUTICAL UNIVERSITY, priority 2017, dated 2024)

Assays:
[1] = biological target: hGPR40 receptor (Homo sapiens (Human), UniProt O14842); assay: agonistic activity on hGPR40-CHO stably transfected cells (Fluo-4 / FLIPR); type: cell-based; conditions: for activation at 0.1 µM / Agonistic activity at 100 nM (%): 100 nM, relative to linoleic acid well; for EC50: mean ± SD of three determinations
Sequence of hGPR40 receptor (O14842 whole entry): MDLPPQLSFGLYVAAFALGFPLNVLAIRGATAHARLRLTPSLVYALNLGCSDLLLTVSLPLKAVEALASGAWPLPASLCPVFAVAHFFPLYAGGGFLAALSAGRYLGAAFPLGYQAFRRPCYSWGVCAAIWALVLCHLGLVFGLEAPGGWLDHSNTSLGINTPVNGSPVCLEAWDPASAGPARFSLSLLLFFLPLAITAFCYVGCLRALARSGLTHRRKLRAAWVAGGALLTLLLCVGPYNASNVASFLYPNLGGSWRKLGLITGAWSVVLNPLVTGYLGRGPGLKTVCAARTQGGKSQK
Description: Experimental example 1 The agonistic activity of the compounds of the present invention on hGPR40-CHO stably transfected cells
The present invention used the following method to determine the GPR40 agonistic activity of the compounds of the invention:
hGPR40-CHO stably transfected cells were seeded into a 96-well plate at a density of 3×10^4/well, and incubated overnight in a 37° C., 5% CO2 cell incubator; the medium was discarded, 100 μl of HBSS was added to each well, and 100 μl of Fluo-4 dye solution containing Probenecid was added and incubated at 37° C. for 90 min. After the incubation, the Fluo-4 dye solution was sucked out, 100 μl of HBSS buffer was added, and the dye was washed away; 100 μl of HBSS containing Probenecid was added to each well, and incubated at 37° C. for 10 min; different concentrations of drugs were added to each well of the 96-well plate and FLIPR (Molecular Devices) was used for readings according to the parameter setting table. The experimental results were analyzed.

[2] = tested on: normal mice; assay: Oral glucose tolerance test (OGTT) in normal mice; type: in vivo, Kunming mice; conditions: for effect on oral glucose tolerance in mice (in words): OGTT in normal mice, 20 mg/kg; for blood glucose level at 15 min / blood glucose level at 0 min / blood glucose level at 30 min / blood glucose level at 60 min / blood glucose level at 120 min: 20 mg/kg by gavage, in mmol/L (unit assumed); for blood glucose level at 15 min: 15 min after glucose load; for blood glucose level at 0 min: 30 min after dosing, before glucose load; for blood glucose level at 30 min: 30 min after glucose load; for blood glucose level at 60 min: 60 min after glucose load; for blood glucose level at 120 min: 120 min after glucose load
Description: Experimental example 2 In vivo hypoglycemic activity of the compounds of the present invention can be determined by using an assay system as described below:
The mice were fasted for 12 hours before experiment and water was taken freely, each group was administrated by gavage, blood was taken from the tail, and the blood glucose level was measured (recorded as −30 min).

[3] = Evaluation of hepatotoxicity: serum ALT, AST and TBIL after 4 weeks of dosing; type: in vivo; conditions: for AST, ALT and TBIL compared with STZ (blank) group (in words): 4 weeks of dosing; for ALT (IU/L) / AST (IU/L) / TBIL (IU/L): serum, once a day for consecutive 4 weeks, x ± SD, n = 6
Description: Experimental example 3 Evaluation of hepatotoxicity of the compounds of the present invention:
The test compounds were administered once a day for consecutive 4 weeks, blood was taken, and the contents of alanine aminotransferase (ALT), aspartate aminotransferase (AST), and total bilirubin (TBIL) were measured.

| activation at 0.1 µM [1] [%] | EC50 [1] [nM] | Compound | blood glucose level at 15 min ([2]; OGTT, n = 8) | blood glucose level at 0 min ([2]; OGTT, n = 8) | blood glucose level at 30 min ([2]; OGTT, n = 8) | blood glucose level at 60 min ([2]; OGTT, n = 8) | blood glucose level at 120 min ([2]; OGTT, n = 8) | ALT (IU/L) [3] [IU/L] | AST (IU/L) [3] [IU/L] | TBIL (IU/L) [3] [IU/L] | further results |
| --- | --- | --- | --- | --- | --- | --- | --- | --- | --- | --- | --- |
| 46 |  | O=C(O)COc1ccc(NCc2cccc(-c3ccccc3)c2)cc1F [Compound I-11, 2-(4-(([1,1′-biphenyl]-3-methylene)amino)-2-fluorophenoxy)acetic acid] |  |  |  |  |  |  |  |  |  |
| 63 |  | CC(C)c1ccccc1-c1cccc(CNc2ccc(OCC(=O)O)c(F)c2)c1 [Compound I-16] |  |  |  |  |  |  |  |  |  |
| 73 |  | Cc1ccc(-c2cccc(CNc3ccc(OCC(=O)O)c(F)c3)c2)c(Cl)c1 [Compound I-5, 2-(4-((2′-chloro-4′-methyl-[1,1′-biphenyl]-3-methylene)amino)-2-fluorophenoxy)acetic acid] |  |  |  |  |  |  |  |  |  |
| 79 |  | CCOc1cc(C)c(-c2cccc(CNc3ccc(OCC(=O)O)c(F)c3)c2)c(C)c1 [Compound I-1, 2-(4-((4′-ethoxy-2′,6′-dimethyl-[1,1′-biphenyl]-3-methylene)amino)-2-fluorophenoxy) acetic acid] |  |  |  |  |  |  |  |  |  |
|  |  | Cc1cc(OC(F)(F)F)cc(C)c1-c1cccc(CNc2ccc(OCC(=O)O)cc2)c1 [Compound I-29, 2-(4-((4′-trifluoromethoxy-2′,6′-dimethyl-[1,1′-biphenyl]-3-methylene)amino)phenoxy)acetic acid] |  |  |  |  |  |  |  |  | Agonistic activity at 100 nM (%) [1]: 62% |
| 86 | 11.7 ± 4.8 | O=C(O)COc1ccc(NCc2cccc(-c3ccccc3C(F)(F)F)c2)cc1F [Compound I-8, 2-(4-((2′-trifluoromethyl-[1,1′-biphenyl]-3-methylene)amino)-2-fluorophenoxy)acetic acid] | 6.73 ± 0.65 | 4.46 ± 0.47 | 6.82 ± 0.58 | 5.17 ± 0.39 | 4.26 ± 0.25 | 46.63 ± 6.2 | 112.85 ± 17.76 | 2.52 ± 0.3 | effect on oral glucose tolerance in mice (in words) [2]: significantly improve oral glucose tolerance; AST, ALT and TBIL compared with STZ (blank) group (in words) [3]: equivalent to the blank group |
| 79 |  | CCOc1ccc(-c2cccc(CNc3ccc(OCC(=O)O)cc3)c2)c(C)c1 [Compound I-31] |  |  |  |  |  |  |  |  |  |
|  |  | Cc1cc(OCCCS(C)(=O)=O)cc(C)c1-c1cccc(COc2ccc3c(c2)OC[C@H]3CC(=O)O)c1 [TAK-875, reference compound] | 9.68 ± 0.46 | 4.53 ± 0.25 | 8.61 ± 0.45 | 5.47 ± 0.56 | 4.46 ± 0.57 | 72.83 ± 8.4 | 149.33 ± 15.6 | 2.98 ± 0.4 | Agonistic activity at 100 nM (%) [1]: 65%; AST, ALT and TBIL compared with STZ (blank) group (in words) [3]: AST was higher than STZ group |
|  |  | Cc1cc(OC(F)(F)F)ccc1-c1cccc(CNc2ccc(OCC(=O)O)cc2)c1 [Compound I-30, 2-(4-((4′-trifluoromethoxy-2′-methyl-[1,1′-biphenyl]-3-methylene)amino)phenoxy)acetic acid] |  |  |  |  |  |  |  |  | Agonistic activity at 100 nM (%) [1]: 76% |
|  |  | CCOc1cc(C)c(-c2cccc(CNc3ccc(OCC(=O)O)cc3)c2)c(C)c1 [Compound I-17, 2-(4-((4′-ethoxy-2′,6′-dimethyl-[1,1′-biphenyl]-3-methylene)amino)phenoxy)acetic acid] |  |  |  |  |  |  |  |  | Agonistic activity at 100 nM (%) [1]: 70% |
| 67 |  | CCCOc1cc(C)c(-c2cccc(CNc3ccc(OCC(=O)O)c(F)c3)c2)c(C)c1 [Compound I-9, 2-(4-((4′-propoxy-2′,6′-dimethyl-[1,1′-biphenyl]-3-methylene)amino)-2-fluorophenoxy) acetic acid] |  |  |  |  |  |  |  |  |  |
| 80 | 18.4 ± 2.2 | COc1ccc(-c2cccc(CNc3ccc(OCC(=O)O)c(F)c3)c2)c(C)c1 [Compound I-19] | 9.08 ± 0.62 | 4.45 ± 0.56 | 8.21 ± 0.39 | 5.23 ± 0.21 | 4.41 ± 0.44 | 50.33 ± 4.6 | 123.45 ± 7.8 | 2.68 ± 0.3 |  |
| 65 |  | O=C(O)COc1ccc(NCc2cccc(-c3ccccc3F)c2)cc1F [Compound I-4, 2-(4-((2′-fluoro-[1,1′-biphenyl]-3-methylene)amino)-2-fluorophenoxy)acetic acid] |  |  |  |  |  |  |  |  |  |
| 68 |  | Cc1cc(OCCCS(C)(=O)=O)cc(C)c1-c1cccc(CNc2ccc(OCC(=O)O)c(F)c2)c1 [Compound I-12] |  |  |  |  |  |  |  |  |  |
| 68 |  | COc1cc(C)c(-c2cccc(CNc3ccc(OCC(=O)O)c(F)c3)c2)c(C)c1 [Compound I-20, 2-(4-((4′-methoxy-2′,6′-dimethyl-[1,1′-biphenyl]-3-methylene)amino)-2-fluorophenoxy)acetic acid] |  |  |  |  |  |  |  |  |  |
| 84 | 16.3 ± 4.6 | O=C(O)COc1ccc(NCc2cccc(-c3ccccc3Cl)c2)cc1F [Compound I-2, 2-(4-((2′-chloro-[1,1′-biphenyl]-3-methylene)amino)-2-fluorophenoxy)acetic acid] | 6.24 ± 0.39 | 4.25 ± 0.38 | 6.73 ± 0.29 | 4.28 ± 0.37 | 4.17 ± 0.52 | 47 ± 5.3 | 118.43 ± 11.5 | 2.61 ± 0.5 | effect on oral glucose tolerance in mice (in words) [2]: significantly improve oral glucose tolerance; AST, ALT and TBIL compared with STZ (blank) group (in words) [3]: equivalent to the blank group |
| 75 | 28.4 ± 2.8 | CCCOc1ccc(-c2cccc(CNc3ccc(OCC(=O)O)c(F)c3)c2)c(C)c1 [Compound I-15] |  |  |  |  |  |  |  |  |  |
| 85 | 14.6 ± 3.7 | CCOc1ccc(-c2cccc(CNc3ccc(OCC(=O)O)c(F)c3)c2)c(C)c1 [Compound I-13] | 7.25 ± 0.58 | 4.61 ± 0.35 | 7.03 ± 0.89 | 5.25 ± 0.72 | 4.38 ± 0.37 | 52.37 ± 5.3 | 121.37 ± 13.2 | 2.48 ± 0.5 | effect on oral glucose tolerance in mice (in words) [2]: significantly improve oral glucose tolerance; AST, ALT and TBIL compared with STZ (blank) group (in words) [3]: equivalent to the blank group |
| 62 |  | COCCOc1cc(C)c(-c2cccc(CNc3ccc(OCC(=O)O)c(F)c3)c2)c(C)c1 [Compound I-10] |  |  |  |  |  |  |  |  |  |

| Compound | activation at 0.1 µM [1] [%] | EC50 [1] [nM] | blood glucose level at 15 min ([2]; OGTT, n = 8) | blood glucose level at 0 min ([2]; OGTT, n = 8) | blood glucose level at 30 min ([2]; OGTT, n = 8) | blood glucose level at 60 min ([2]; OGTT, n = 8) | blood glucose level at 120 min ([2]; OGTT, n = 8) | ALT (IU/L) [3] [IU/L] | AST (IU/L) [3] [IU/L] | TBIL (IU/L) [3] [IU/L] | further results |
| --- | --- | --- | --- | --- | --- | --- | --- | --- | --- | --- | --- |
| O=C(O)COc1ccc(NCc2cccc(-c3ccccc3C(F)(F)F)c2)cc1 [Compound I-28, 2-(4-((2′-trifluoromethyl-[1,1′-biphenyl]-3-methylene)amino)phenoxy)acetic acid] |  | 17.9 ± 2.9 | 8.59 ± 0.38 | 4.56 ± 0.48 | 7.43 ± 0.56 | 5.30 ± 0.26 | 4.21 ± 0.45 | 49.36 ± 7.8 | 119.68 ± 7.3 | 2.57 ± 0.5 | Agonistic activity at 100 nM (%) [1]: 81%; effect on oral glucose tolerance in mice (in words) [2]: significantly improve oral glucose tolerance; blood glucose level at −30 min ([2]; OGTT, fasted mice, before dosing, x ± SD, n = 8): 4.35 ± 0.36 |
